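In this assay, cells in 96-well plates receive the compound at five concentrations for 48 hours. Endpoints are linearly interpolated between the surrounding concentrations. TGI marks complete inhibition of growth.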
Key:
Experiment in all cases: NCI anticancer screen, dose series, 48 h
HOP-18 NSCLC = tested on: HOP-18 NSCLC
OVCAR-4 ovarian = tested on: OVCAR-4 ovarian
SNB-75 CNS = tested on: SNB-75 CNS
OVCAR-3 ovarian = tested on: OVCAR-3 ovarian
NCI-H23 lung = tested on: NCI-H23 lung
CAKI-1 renal = tested on: CAKI-1 renal
HCT-116 colon = tested on: HCT-116 colon
M19-MEL melanoma = tested on: M19-MEL melanoma
A498 renal = tested on: A498 renal
DMS 273 small cell lung = tested on: DMS 273 small cell lung
SNB-19 CNS = tested on: SNB-19 CNS
786-0 renal = tested on: 786-0 renal
OVCAR-5 ovarian = tested on: OVCAR-5 ovarian
NCI-H522 lung = tested on: NCI-H522 lung
A549 NSCLC = tested on: A549 NSCLC
SK-MEL-2 melanoma = tested on: SK-MEL-2 melanoma
SF-295 CNS = tested on: SF-295 CNS
KM12 colon = tested on: KM12 colon
U251 CNS = tested on: U251 CNS
UO-31 renal = tested on: UO-31 renal
SK-MEL-28 melanoma = tested on: SK-MEL-28 melanoma
LXFL 529 NSCLC = tested on: LXFL 529 NSCLC
UACC-257 melanoma = tested on: UACC-257 melanoma
HCC-2998 colon = tested on: HCC-2998 colon
K-562 leukemia = tested on: K-562 leukemia
SF-539 CNS = tested on: SF-539 CNS
MALME-3M melanoma = tested on: MALME-3M melanoma
ACHN renal = tested on: ACHN renal
DLD-1 colon = tested on: DLD-1 colon
IGROV1 ovarian = tested on: IGROV1 ovarian
COLO 205 colon = tested on: COLO 205 colon
RPMI-8226 leukemia = tested on: RPMI-8226 leukemia
NCI-H460 lung = tested on: NCI-H460 lung
OVCAR-8 ovarian = tested on: OVCAR-8 ovarian
RXF-631 renal = tested on: RXF-631 renal
SF-268 CNS = tested on: SF-268 CNS
HCT-15 colon = tested on: HCT-15 colon
UACC-62 melanoma = tested on: UACC-62 melanoma
DMS 114 small cell lung = tested on: DMS 114 small cell lung
SK-MEL-5 melanoma = tested on: SK-MEL-5 melanoma
SNB-78 CNS = tested on: SNB-78 CNS
LOX IMVI melanoma = tested on: LOX IMVI melanoma
HOP-92 NSCLC = tested on: HOP-92 NSCLC
KM20L2 colon = tested on: KM20L2 colon
NCI-H226 lung = tested on: NCI-H226 lung
TK-10 renal = tested on: TK-10 renal
M14 melanoma = tested on: M14 melanoma
HOP-62 NSCLC = tested on: HOP-62 NSCLC
MOLT-4 leukemia = tested on: MOLT-4 leukemia
EKVX NSCLC = tested on: EKVX NSCLC
SW-620 colon = tested on: SW-620 colon
CCRF-CEM leukemia = tested on: CCRF-CEM leukemia
RXF 393 renal = tested on: RXF 393 renal
SN12C renal = tested on: SN12C renal
HT29 colon = tested on: HT29 colon
XF 498 CNS = tested on: XF 498 CNS
SK-OV-3 ovarian = tested on: SK-OV-3 ovarian
HL-60(TB) leukemia = tested on: HL-60(TB) leukemia

Measured: TGI

COc1ccc(/C=C2\CCC(C)(CN(C)C)C2=O)cc1OC (stereo not drawn)
not listed: XF 498 CNS | SK-OV-3 ovarian | HL-60(TB) leukemia
> 100 µM: all other assays above

NC(=O)c1csc(C2OC(COP(=O)(O)CP(=O)(O)OCC3OC(n4cnc5c(N)ncnc54)C(O)C3O)C(O)C2O)n1 (stereo not drawn)
not listed: HCT-116 colon | RXF 393 renal
> 100 µM: all other assays above

O=C1Nc2ccccc2N=CC1NC(=O)C(c1ccccc1)c1ccccc1 (stereo not drawn)
not listed: XF 498 CNS
> 100 µM: all other assays above
